Laboratory results from US20200239937A1, “BIOMARKERS FOR DIAGNOSING CONDITIONS” (The Council of the Queensland Institute of Medical Research, priority 2017, published 2020).
Residues, ends and D or L forms follow the SMILES beside them. *: point of attachment. Cbz = O=C(OCc1ccccc1)*

Key:
G9a [1] = assay: G9a immunoblotting of nuclear extracts; assay type: cell-based
G9a [2] = assay: Ubiquitination assay (His-ubiquitin pull-down, G9a immunoblot); assay type: cell-based; conditions: MCF7 cells, DMOG 1 mM
Description: The ubiquitination assay was performed as described previously (Lee, Mol. Cell, 2012). Briefly, cells were transfected with expression constructs including His-tagged ubiquitin and treated with 5 μg/ml of MG132 for 4 hrs, lysed in buffer A (6 M guanidinium-HCl, 100 mM sodium phosphate, 10 mM Tris-HCl (pH 8.0), 5 mM imidazole, and 10 mM β-mercaptoethanol), and incubated with Ni^2+-NTA beads (QIAGEN) for 4 hrs at room temperature. The beads were then washed sequentially with buffer A, buffer B (8 M urea, 100 mM sodium phosphate buffer, 10 mM Tris-HCl (pH 8.0), and 10 mM β-mercaptoethanol), and buffer C (8 M urea, 100 mM sodium phosphate buffer, 10 mM Tris-HCl (pH 6.3), and 10 mM β-mercaptoethanol). Bound proteins were eluted with buffer D (200 mM imidazole, 150 mM Tris-HCl (pH 6.7), 30% glycerol, 0.72 M β-mercaptoethanol, and 5% SDS), and subject to immunoblot analysis.

G9a and pVHL = assay: Co-immunoprecipitation of G9a and pVHL; assay type: cell-based; conditions: MCF7 cells, immunoprecipitated with anti-HA
10 G9a-suppressed genes = assay: Real-time qPCR of the 10 G9a-suppressed genes; assay type: cell-based; conditions: versus control cells
Description: (§1) Quantitative RT-PCR and ChIP assays were conducted as previously described.
Briefly, total RNA was isolated using Trizol (Invitrogen) and reverse transcription was performed from 2.5 μg of total RNA using the Superscript III cDNA synthesis kit (Invitrogen). The abundance of mRNA was detected by an ABI VIIA7 system with SYBR Green Master Mix (Life Technologies). Primer pairs were designed to amplify 90-150 bp mRNA specific fragments and were confirmed as unique products by melting curve analysis. The quantity of mRNA was calculated using ΔΔCt method and normalized by using primers to detect HPRT. All reactions were performed in triplicates.

[3] = test system: H3K9me2 at promoters of G9a-repressed genes; assay: ChIP of H3K9me2 on promoters of G9a-repressed genes; assay type: cell-based; conditions: MCF7 cells, 3 μM UNC0642, hypoxia
Description: as §1

[4] = test system: Bre80 and MCF10A breast epithelial cells; assay: Cell survival (MTT) in normal-like breast epithelial cells; assay type: cell-based; conditions: UNC0642 at 5 μM
Description: (§2) For proliferation studies, cells (5×10^3) were seeded in 96-place wells and allowed to attach overnight, and then incubated in fresh growth medium in the presence of either the G9a inhibitor UNC0642 (Sigma Aldrich) or the vehicle control DMSO (Sigma Aldrich). Proliferation was evaluated via real-time imaging using IncuCyte Zoom (Essen BioScience) or by performing SRB assays at the end of the treatment. For SRB assays, medium was aspirated and cells were fixed in methylated spirits before being washed with water and stained with SRB (Sigma Aldrich) solution (0.4% in 1% acetic acid). The intensity of the staining was obtained using an optical plate reader at 564 nm. Cell viability was determined using a 3-(4,5-dimethylthiazol-2-yl)-2,5-diphenyltetrazolium bromide ([…]) assay. Cells (3×10^3/well) were seeded directly into 96-well plates and allowed to adhere overnight. 96 hours after drug treatment, 20 μL of MU (5 mg/mL; Sigma-Aldrich) was added. The plates were incubated at 37° C. for 3 hrs before the supernatants were removed, and 100 μL of isopropanol was added to each well. The absorbance value (optical density) of each well was measured at 570 nm.

breast cancer cell lines = assay: Cell survival (MTT) in breast cancer cell lines; assay type: cell-based; conditions: UNC0642 at 5 μM
Description: as §2

MCF7 and MDA231 cells = assay: Proliferation by IncuCyte Zoom real-time imaging; assay type: cell-based; conditions: 48 hours
Description: as §2

MCF7 = assay: SRB assay, MCF7; assay type: cell-based; conditions: MCF7, 48 hour treatment, normoxic and hypoxic conditions
Description: as §2

MDA231 = assay: SRB assay, MDA231; assay type: cell-based; conditions: MDA231, 48 hour treatment, normoxic and hypoxic conditions
Description: as §2

H3K9me2 = assay: Immunoblotting of global H3K9me2; assay type: cell-based; conditions: MCF7 nuclear extracts, 6 hrs
[5] = test system: breast cancer cell motility (MCF7, MDA231); assay: Scratch wound assay; assay type: cell-based
[6] = test system: AT3 syngeneic mammary tumor; assay: AT3 syngeneic mammary tumor growth in vivo; parameters: species or system C57BL/6 mice; conditions: 5 mg/kg intraperitoneally every two days
Description: C57BL/6 mice were purchased from the ARC Animal Resources Center. Groups of 8 to 10 mice per experiment were used for experimental tumor assays to ensure adequate power to detect biologic differences. All experiments were approved by the QIMR Berghofer Medical Research Institute Animal Ethics Committee. A total of 1×10^6 AT3 tumor cells were subcutaneously injected into mice in a 100 μL volume (on day 0) and UNC0642 administered every two days between days 16 and day 36. Tumor growth was measured using a digital calliper, and tumor volumes are presented as mean±SEM.

## CC(C)C[C@@H](C=O)NC(=O)[C@H](CC(C)C)NC(=O)[C@H](CC(C)C)NC(=O)OCc1ccccc1 [MG132] (Cbz-Leu-Leu-Leu-aldehyde)
G9a [1]; MCF7 cells, normoxia, 9 hrs, 20 μM MG132
  G9a protein level: increase in G9a protein level

## COC(=O)CNC(=O)C(=O)OC [DMOG, dimethyloxaloylglycine]
G9a [1]; MCF7 and MDA231 cells, DMOG 1 mM, DFA 100 μM
  G9a protein levels: increase in G9a protein levels
G9a [2]
  level of G9a polyubiquitination: markedly reduced
G9a and pVHL
  interaction between G9a and pVHL: significantly inhibited

## COc1cc2c(NC3CCN(C(C)C)CC3)nc(N3CCC(F)(F)CC3)nc2cc1OCCCN1CCCC1 [UNC0642]
10 G9a-suppressed genes
  hypoxia repression of expression of the 10 G9a-suppressed genes: repression was abolished
[3]
  hypoxia-mediated increase in H3K9me2 in promoters of G9a-repressed genes: almost completely abrogated or significantly reduced
[4]
  cell survival: unaffected
Breast cancer cell lines
  survival of cancer cell lines: significantly attenuated
MCF7 and MDA231 cells; 2-3 μM
  confluency at the end of the experiment, fold less compared to vehicle control: 2 to 2.5 fold
MCF7 and MDA231 cells; various concentrations
  proliferation compared to vehicle control: dose-dependent reduction in proliferation
MCF7
  cells present after treatment: less than 20%
MDA231
  cells present after treatment: less than 20%
H3K9me2
  global H3K9me2: significant reduction
[5]; hypoxic condition, 72 hours
  wound closure: not able to close the wound even after 72 hours
[5]; normoxic condition
  cellular migration (denuded area versus vehicle control): inhibit cellular migration
[6]
  mean tumor volume at end-point versus vehicle treated group: significantly lower
[6]; days 16 to 36
  tumor growth: significantly reduced tumor growth
